Experimental data taken from US9784753B2, “Biological system to test in vitro if a substance is immune reactive” (priority 1996, dated 2017).

Legend:
[1] = test system: frozen whole blood stimulated with LPS; test: Modulation of LPS-stimulated IL-1 release in frozen whole blood; assay type: cell-based, human; settings: depending on amount of substance administered; FIGS. 2 and 3
Protocol: Citrated blood from healthy donors was mixed with 10% dimethylsulfoxide (Merck, Darmstadt) immediately after it was drawn. Aliquots of 100 microliters were distributed in 2 milliliter reaction vessels (Eppendorf, Hamburg) and transferred to a −70° C. cold box in a commercial freezing system (a person, Nalgene). Thawing was done in a thermoshaker (Eppendorf, Hamburg) at 37° C. Immediately after thawing, 900 microliters of RPMI 1640 (Gibco, Eggenstein), warmed to 37° C., was added. Then the test substances, such as dilutions of a pyrogen, in this case, lipopolysaccharide of Salmonella abortus equi (Sigma, Deisenhofen) were added. After a four-hour incubation at 37° C., for example, in an incubator (Heraeus, Fellbach) with 5% carbon dioxide the incubated samples are shaken and centrifuged. Endogenous pyrogens, IL-1β in this case, are determined in the cell-free supernatant, after freezing, if desired. […] IL-1β was determined by ELISA (enzyme-linked immunosorbent assay) from antibodies from the company Pharmingen (Hamburg).

[2] = test system: cryopreserved blood from four healthy donors; test: IL-1β release in thawed cryopreserved whole blood on contact with pyrogen (ELISA); assay type: cell-based, human; settings: thawed deep-frozen citrated blood with 10% dimethylsulfoxide, diluted with RPMI 1640, four-hour incubation at 37° C., FIG. 1
Protocol: Citrated blood from healthy donors was mixed with 10% dimethylsulfoxide (Merck, Darmstadt) immediately after it was drawn. Aliquots of 100 microliters were distributed in 2 milliliter reaction vessels (Eppendorf, Hamburg) and transferred to a −70° C. cold box in a commercial freezing system (Mr. Freezy, Nalgene). Thawing was done in a thermoshaker (Eppendorf, Hamburg) at 37° C. Immediately after thawing, 900 microliters of RPMI 1640 (Gibco, Eggenstein), warmed to 37° C., was added. Then the test substances, such as dilutions of a pyrogen, in this case, lipopolysaccharide of Salmonella abortus equi (Sigma, Deisenhofen) were added. After a four-hour incubation at 37° C., for example, in an incubator (Heraeus, Fellbach) with 5% carbon dioxide the incubated samples are shaken and centrifuged. Endogenous pyrogens, IL-1β in this case, are determined in the cell-free supernatant, after freezing, if desired. […] IL-1β was determined by ELISA (enzyme-linked immunosorbent assay) from antibodies from the company Pharmingen (Hamburg).

For `Cn1cnc([N+](=O)[O-])c1Sc1ncnc2[nH]cnc12` [azathioprin], the “release of IL-1 in frozen whole blood stimulated with LPS” value [1] was “dependence of release of IL-1”.
“lipopolysaccharide of Salmonella abortus equi” was tested, and the “release of endogenous pyrogens (IL-1β)” value [2] was “release of endogenous pyrogens in the presence of minimal amounts of pyrogens”.
